Measurements: paper PMC5784128, “Glucansucrase (mutant) enzymes from Lactobacillus reuteri 180 efficiently transglucosylate Stevia component rebaudioside A, resulting in a superior taste” (Scientific Reports, 2018)

Biological target: T1, Gtf180-ΔN (Limosilactobacillus reuteri, UniProt Q5SBN3, Q1140E)
T1 construct: N-terminally truncated fragment (first 741 residues removed), 117 kDa; start 742 derived from the printed truncation
Assay: HPLC time course of transglucosylation
Type: biochemical
Details: acceptor substrate; 84 mM RebA, 282 mM sucrose donor, 5 U/mL enzyme, 1 mM CaCl2, pH 4.7, 37 °C

T1 sequence (Q5SBN3 entry or part of it Q1140E): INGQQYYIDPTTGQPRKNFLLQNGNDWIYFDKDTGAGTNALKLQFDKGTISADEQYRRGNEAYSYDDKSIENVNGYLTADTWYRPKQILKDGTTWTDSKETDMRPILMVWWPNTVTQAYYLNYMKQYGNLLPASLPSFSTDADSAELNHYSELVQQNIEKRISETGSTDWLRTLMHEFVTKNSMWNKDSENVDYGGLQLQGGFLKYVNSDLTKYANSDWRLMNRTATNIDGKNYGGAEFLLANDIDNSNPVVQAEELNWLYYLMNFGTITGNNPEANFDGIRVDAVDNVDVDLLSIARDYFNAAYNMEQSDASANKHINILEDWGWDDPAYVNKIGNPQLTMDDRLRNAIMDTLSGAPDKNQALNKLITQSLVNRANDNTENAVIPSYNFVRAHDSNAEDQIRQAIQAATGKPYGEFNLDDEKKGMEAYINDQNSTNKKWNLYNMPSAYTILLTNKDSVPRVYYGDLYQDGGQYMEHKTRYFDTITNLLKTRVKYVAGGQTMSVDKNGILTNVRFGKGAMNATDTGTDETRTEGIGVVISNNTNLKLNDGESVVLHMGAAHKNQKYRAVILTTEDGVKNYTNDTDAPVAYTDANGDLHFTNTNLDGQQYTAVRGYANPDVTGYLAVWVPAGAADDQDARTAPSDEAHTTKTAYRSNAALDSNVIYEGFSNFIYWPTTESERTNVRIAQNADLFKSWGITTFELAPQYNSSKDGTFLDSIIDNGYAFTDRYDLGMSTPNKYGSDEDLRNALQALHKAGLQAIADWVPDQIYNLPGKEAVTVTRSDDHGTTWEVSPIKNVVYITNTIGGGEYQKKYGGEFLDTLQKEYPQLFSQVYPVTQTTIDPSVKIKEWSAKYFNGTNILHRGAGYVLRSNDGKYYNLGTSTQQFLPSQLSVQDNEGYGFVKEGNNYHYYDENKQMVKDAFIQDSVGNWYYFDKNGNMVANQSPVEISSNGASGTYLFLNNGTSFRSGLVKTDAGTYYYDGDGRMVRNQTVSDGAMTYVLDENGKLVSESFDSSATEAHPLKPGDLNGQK

Q: For C=C1C[C@@]23CC[C@H]4[C@@](C)(CCC[C@@]4(C)C(=O)O[C@@H]4O[C@H](CO)[C@@H](O)[C@H](O)[C@H]4O)[C@@H]2CC[C@]1(O[C@@H]1O[C@H](CO)[C@@H](O)[C@H](O[C@@H]2O[C@H](CO)[C@@H](O)[C@H](O)[C@H]2O)[C@H]1O[C@@H]1O[C@H](CO)[C@@H](O)[C@H](O)[C@H]1O)C3 [rebaudioside A], which “HPLC time course of transglucosylation” value is on record?
A: the Q1140E-mutant not only converted more RebA into RebA-G than wild-type Gtf180-ΔN
